Tests used:
Assay type in all cases: biochemical
[1] = molecular target: p110β/p85α (Homo sapiens, UniProt P42338); test: Transcreener KINASE Assay, kinase inhibition of p110β/p85α; settings: for PI3Kβ IH % @ 1 uM: 1 uM test compound; for IC50: read-out: PI3Kβ IC50
How it was run: (§1)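 Recombinant human PI3K heterodimers (p110/p85α) incubated with compound (2% DMSO final) in HEPES/NaCl/EGTA/CHAPS/MgCl2/DTT buffer with 30 uM PIP2 and 10 uM ATP (as added) for 80 min at room temperature.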

[2] = molecular target: p110δ/p85α (Homo sapiens, UniProt O00329); test: Transcreener KINASE Assay, kinase inhibition of p110δ/p85α; settings: for PI3Kδ IH % @ 1 uM: 1 uM test compound; for IC50: read-out: PI3Kδ IC50
Chain of p110δ/p85α (O00329 whole entry): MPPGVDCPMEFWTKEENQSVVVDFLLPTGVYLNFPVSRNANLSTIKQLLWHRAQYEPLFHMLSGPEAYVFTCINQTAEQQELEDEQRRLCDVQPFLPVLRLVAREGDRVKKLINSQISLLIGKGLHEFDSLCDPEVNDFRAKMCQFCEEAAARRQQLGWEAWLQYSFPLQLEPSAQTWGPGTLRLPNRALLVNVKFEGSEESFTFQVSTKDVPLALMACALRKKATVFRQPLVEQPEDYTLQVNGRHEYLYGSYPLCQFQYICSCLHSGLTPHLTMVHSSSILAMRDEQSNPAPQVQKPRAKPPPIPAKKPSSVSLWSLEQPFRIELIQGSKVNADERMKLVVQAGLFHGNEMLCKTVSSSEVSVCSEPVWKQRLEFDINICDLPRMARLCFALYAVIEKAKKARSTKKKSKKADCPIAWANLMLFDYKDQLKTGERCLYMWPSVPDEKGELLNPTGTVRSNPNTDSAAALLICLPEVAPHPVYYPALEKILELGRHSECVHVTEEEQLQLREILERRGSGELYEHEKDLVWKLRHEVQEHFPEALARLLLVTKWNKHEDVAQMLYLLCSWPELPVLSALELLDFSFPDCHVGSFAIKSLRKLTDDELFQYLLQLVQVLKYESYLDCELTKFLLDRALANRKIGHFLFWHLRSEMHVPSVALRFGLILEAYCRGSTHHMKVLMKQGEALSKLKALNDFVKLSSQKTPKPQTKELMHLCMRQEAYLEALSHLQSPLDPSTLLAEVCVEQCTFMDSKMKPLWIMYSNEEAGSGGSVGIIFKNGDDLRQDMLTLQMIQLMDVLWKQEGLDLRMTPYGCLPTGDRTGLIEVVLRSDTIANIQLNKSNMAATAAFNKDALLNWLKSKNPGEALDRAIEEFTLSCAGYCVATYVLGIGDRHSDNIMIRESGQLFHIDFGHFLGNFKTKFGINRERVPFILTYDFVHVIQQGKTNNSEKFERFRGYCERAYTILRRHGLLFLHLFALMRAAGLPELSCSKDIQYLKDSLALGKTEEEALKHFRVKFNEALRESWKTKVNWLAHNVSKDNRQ
Chain of p110δ/p85α (P27986 whole entry partner): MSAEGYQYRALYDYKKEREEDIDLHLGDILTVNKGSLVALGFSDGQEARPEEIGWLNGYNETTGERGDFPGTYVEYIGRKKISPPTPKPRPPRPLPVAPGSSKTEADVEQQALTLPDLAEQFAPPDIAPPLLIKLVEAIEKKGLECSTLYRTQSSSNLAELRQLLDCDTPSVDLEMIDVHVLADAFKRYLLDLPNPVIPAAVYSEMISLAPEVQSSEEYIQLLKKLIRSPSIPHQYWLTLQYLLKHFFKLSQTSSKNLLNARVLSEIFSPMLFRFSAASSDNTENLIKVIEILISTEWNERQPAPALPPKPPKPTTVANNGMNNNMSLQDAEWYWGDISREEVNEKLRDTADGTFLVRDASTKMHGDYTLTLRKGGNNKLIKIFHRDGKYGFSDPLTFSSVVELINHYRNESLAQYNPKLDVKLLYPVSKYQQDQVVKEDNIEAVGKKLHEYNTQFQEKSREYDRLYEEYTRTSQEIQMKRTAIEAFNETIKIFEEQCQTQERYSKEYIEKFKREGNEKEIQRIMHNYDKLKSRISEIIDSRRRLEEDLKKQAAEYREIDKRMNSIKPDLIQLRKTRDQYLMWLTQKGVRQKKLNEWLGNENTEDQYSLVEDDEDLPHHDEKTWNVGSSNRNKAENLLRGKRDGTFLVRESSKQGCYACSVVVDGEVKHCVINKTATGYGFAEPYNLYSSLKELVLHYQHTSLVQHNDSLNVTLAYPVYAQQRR
How it was run: as §1

[3] = molecular target: p110γ (Homo sapiens, UniProt P48736); test: Transcreener KINASE Assay, kinase inhibition of p110γ; settings: for PI3Kγ IH % @ 1 uM: 1 uM test compound; for IC50: read-out: PI3Kγ IC50
Chain of p110γ (P48736 whole entry): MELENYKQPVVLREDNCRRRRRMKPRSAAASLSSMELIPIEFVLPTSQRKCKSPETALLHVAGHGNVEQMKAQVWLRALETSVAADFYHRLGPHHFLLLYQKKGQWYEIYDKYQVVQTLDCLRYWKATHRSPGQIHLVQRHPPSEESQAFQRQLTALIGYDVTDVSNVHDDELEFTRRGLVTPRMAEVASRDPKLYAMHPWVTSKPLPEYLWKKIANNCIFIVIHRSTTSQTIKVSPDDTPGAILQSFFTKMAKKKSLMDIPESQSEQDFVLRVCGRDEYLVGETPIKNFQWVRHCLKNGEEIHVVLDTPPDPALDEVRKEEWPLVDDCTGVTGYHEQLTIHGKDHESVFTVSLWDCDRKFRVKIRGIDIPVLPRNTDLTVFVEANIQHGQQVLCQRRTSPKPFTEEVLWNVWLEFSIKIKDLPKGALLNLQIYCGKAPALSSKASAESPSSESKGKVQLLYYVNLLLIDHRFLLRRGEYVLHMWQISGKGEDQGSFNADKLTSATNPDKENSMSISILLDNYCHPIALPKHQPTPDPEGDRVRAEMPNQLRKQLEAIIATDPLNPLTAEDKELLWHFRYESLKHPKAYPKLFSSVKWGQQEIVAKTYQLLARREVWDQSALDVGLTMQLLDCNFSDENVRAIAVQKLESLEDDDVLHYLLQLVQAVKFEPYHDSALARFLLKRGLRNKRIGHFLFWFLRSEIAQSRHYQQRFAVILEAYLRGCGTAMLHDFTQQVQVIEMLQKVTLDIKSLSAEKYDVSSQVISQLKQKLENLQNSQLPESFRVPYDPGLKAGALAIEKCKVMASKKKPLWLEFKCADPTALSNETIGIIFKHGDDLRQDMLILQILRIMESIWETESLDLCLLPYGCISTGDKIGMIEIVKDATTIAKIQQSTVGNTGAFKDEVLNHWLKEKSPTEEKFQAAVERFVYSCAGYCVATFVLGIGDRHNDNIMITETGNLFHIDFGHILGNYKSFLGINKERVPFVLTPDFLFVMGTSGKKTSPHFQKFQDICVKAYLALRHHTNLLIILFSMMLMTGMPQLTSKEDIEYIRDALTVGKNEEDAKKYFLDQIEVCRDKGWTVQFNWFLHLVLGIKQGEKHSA
How it was run: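 Homogeneous endpoint format using recombinant enzymes; ADP measured by far-red FP immunoassay after 80 min reaction and 60 min detection, both at room temperature.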

Chain of p110β/p85α (P42338 whole entry): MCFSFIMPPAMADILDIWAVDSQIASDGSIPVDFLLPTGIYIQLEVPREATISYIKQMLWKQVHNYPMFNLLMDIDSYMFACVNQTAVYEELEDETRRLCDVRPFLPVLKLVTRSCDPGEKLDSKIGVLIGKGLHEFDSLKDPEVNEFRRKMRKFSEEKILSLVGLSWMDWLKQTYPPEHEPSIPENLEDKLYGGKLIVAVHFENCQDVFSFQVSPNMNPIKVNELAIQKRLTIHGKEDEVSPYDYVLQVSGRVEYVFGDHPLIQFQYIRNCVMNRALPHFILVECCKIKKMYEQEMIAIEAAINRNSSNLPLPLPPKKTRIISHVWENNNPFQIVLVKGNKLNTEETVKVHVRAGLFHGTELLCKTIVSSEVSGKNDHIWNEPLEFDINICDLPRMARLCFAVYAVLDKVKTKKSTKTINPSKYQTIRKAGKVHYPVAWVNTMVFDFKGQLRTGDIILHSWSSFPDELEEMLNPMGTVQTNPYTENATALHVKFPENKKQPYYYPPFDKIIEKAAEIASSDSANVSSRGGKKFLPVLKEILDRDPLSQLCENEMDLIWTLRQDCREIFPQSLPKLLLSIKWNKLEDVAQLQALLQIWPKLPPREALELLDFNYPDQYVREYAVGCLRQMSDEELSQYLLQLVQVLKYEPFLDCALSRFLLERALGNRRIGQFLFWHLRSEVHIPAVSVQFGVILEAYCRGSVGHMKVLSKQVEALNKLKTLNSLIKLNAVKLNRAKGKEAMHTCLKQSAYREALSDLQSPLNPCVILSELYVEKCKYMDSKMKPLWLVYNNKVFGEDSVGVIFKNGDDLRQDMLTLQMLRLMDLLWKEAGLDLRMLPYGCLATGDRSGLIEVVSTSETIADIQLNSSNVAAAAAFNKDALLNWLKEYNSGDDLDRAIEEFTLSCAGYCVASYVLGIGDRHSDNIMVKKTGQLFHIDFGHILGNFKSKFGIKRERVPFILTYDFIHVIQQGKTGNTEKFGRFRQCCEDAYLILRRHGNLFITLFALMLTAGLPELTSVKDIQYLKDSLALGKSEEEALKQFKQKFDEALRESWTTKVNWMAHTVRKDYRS
Chain of p110β/p85α (P27986 2-724 partner): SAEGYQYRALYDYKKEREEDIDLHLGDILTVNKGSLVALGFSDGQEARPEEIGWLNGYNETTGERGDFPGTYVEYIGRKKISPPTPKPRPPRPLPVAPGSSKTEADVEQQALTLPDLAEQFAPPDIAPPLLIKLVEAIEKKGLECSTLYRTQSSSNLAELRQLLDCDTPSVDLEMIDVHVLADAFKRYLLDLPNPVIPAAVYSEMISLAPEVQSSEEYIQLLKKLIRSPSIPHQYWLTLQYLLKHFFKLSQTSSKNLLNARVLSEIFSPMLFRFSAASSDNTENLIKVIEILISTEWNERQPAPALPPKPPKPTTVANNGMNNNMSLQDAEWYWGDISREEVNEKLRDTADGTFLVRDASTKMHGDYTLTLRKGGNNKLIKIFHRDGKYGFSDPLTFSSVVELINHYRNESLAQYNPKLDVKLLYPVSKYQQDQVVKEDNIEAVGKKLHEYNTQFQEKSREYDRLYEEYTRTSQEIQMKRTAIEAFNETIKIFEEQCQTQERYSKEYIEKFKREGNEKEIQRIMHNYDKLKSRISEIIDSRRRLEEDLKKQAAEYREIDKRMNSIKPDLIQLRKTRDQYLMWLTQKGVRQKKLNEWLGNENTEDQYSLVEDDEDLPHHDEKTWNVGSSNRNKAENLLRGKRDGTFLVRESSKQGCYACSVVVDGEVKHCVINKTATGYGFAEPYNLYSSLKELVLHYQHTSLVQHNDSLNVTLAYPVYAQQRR

SMILES | PI3Kβ IH % @ 1 uM [1] | PI3Kδ IH % @ 1 uM [2] | IC50 [2] | PI3Kγ IH % @ 1 uM [3] | IC50 [3] | IC50 [1]
CC(Nc1ncnc2[nH]cc(F)c12)c1cc2ncc(Cl)n2c(=O)n1-c1ccccc1 (single isomer, unassigned) [Compound 450] | 76.9% | 99.3% | – | 98.6% | – | –
N#Cc1cnc(N)nc1N1CC(=O)C[C@H]1c1nn2ccc(F)c2c(=O)n1-c1ccccc1 [Compound 401] | 46.7% | >100% | 4 nM | 67.8% | 189 nM | –
O=c1c2c(Cl)ccn2cc(C2CCCN2c2ncnc3[nH]cnc23)n1-c1ccccc1 (centres unmarked) [Compound 363, 3-(1-(9H-purin-6-yl)pyrrolidin-2-yl)-8-chloro-2-phenylpyrrolo[1,2-a]pyrazin-1(2H)-one] | 68.3% | 97.5% | 6 nM | 98.3% | 27 nM | –
CS(=O)(=O)CCn1c([C@@H]2CCCN2c2ncnc3[nH]cnc23)nn2ccc(Cl)c2c1=O [Compound 372] | 42.6% | 84.8% | 100 nM | 87.7% | 297 nM | –
C[C@H](Nc1nc(N)ncc1C#N)c1cc2ncc(Cl)n2c(=O)n1-c1ccccc1 (single isomer, unassigned) [Compound 385] | 83.3% | >100% | 4 nM | 95.9% | 10 nM | 75 nM
CC(Nc1ncnc2[nH]cnc12)c1cn2cccc2c(=O)n1-c1ccccc1 (centres unmarked) [Compound 83] | 42.7% | 97.3% | – | 78.6% | 309 nM | –
N#Cc1c[nH]c2ncnc(N3C[C@@H](F)C[C@H]3c3nn4ccc(Cl)c4c(=O)n3Cc3ccccn3)c12 [Compound 158] | 71.1% | >100% | 6 nM | >100% | 46 nM | 473 nM
Cc1nc(N)nc(N2CCC[C@H]2c2nn3ccc(Cl)c3c(=O)n2-c2ccccc2)n1 [Compound 201] | 25.3% | >100% | 19 nM | >100% | 49 nM | –
CC(Nc1nc(N)ncc1C#N)c1cn2ccc(F)c2c(=O)n1-c1ccccc1 (single isomer, unassigned) [Compound 449] | 87.2% | 96.1% | – | 97.8% | – | –
CC(Nc1ncnc2[nH]cc(C#N)c12)c1cn2cccc2c(=O)n1-c1ccccc1 (centres unmarked) [Compound 82] | 56.4% | 98.7% | – | 78.6% | 194 nM | –
N#Cc1cnc(N)nc1N1CCC[C@H]1c1nn2ccc(Cl)c2c(=O)n1-c1ccccc1 [Compound 207] | 80.4% | >100% | 1 nM | >100% | – | 298 nM
CC(Nc1ncnc2[nH]cnc12)c1cn2ccc(Cl)c2c(=O)n1-c1cccc(F)c1 (centres unmarked) [Compound 75, 3-(1-(9H-purin-6-ylamino)ethyl)-8-chloro-2-(3-fluorophenyl)pyrrolo[1,2-a]pyrazin-1(2H)-one] | 69.3% | 99.1% | 3 nM | 97.3% | 8 nM | 96 nM
Cc1nc(N)nc(N2CC[C@H]2c2nn3c(C)cc(Cl)c3c(=O)n2-c2ccccc2)c1C#N [Compound 502] | 33.6% | 66.2% | – | 66.4% | – | –
CC(=O)c1c[nH]c2ncnc(NC(C)c3cc4ncc(Cl)n4c(=O)n3-c3ccccc3)c12 (centres unmarked) [Compound 287] | 73.9% | >100% | 5 nM | 96.9% | 68 nM | 463 nM
Nc1nc2c(c(N3CCC[C@H]3c3nn4ccc(Br)c4c(=O)n3-c3ccccc3)n1)CCC2 [Compound 245] | 38.4% | 78.0% | 341 nM | 77.5% | 337 nM | –
O=c1c2c(Cl)ccn2nc([C@@H]2C[C@H](F)CN2c2ncnc3[nH]cnc23)n1Cc1ccccn1 [Compound 157] | 39.5% | >100% | 21 nM | 79.9% | 280 nM | –
C[C@H]1CN(c2nc(N)ncc2C#N)[C@@H]1c1nn2ccc(C(F)(F)F)c2c(=O)n1-c1ccccc1 [Compound 490] | 33.4% | 96.6% | 54 nM | >100% | 15 nM | –
O=c1c2c(Cl)ccn2nc([C@@H]2CCCN2c2ncnc3[nH]cnc23)n1Cc1ccccn1 [Compound 68] | 52.1% | 98.5% | 28 nM | 73.8% | 78 nM | –

Results, then the compound that gave them:

PI3Kβ IH % @ 1 uM [1] | PI3Kδ IH % @ 1 uM [2] | IC50 [2] | PI3Kγ IH % @ 1 uM [3] | IC50 [3] | IC50 [1] | SMILES
37.6% | >100% | 14 nM | 86.3% | 35 nM | – | C[C@H]1CN(c2ncnc3[nH]cnc23)C1c1nn2ccc(Cl)c2c(=O)n1-c1ccccc1 (some centres unmarked) [Compound 237]
86.1% | >100% | 2 nM | 94.1% | 17 nM | 369 nM | C[S@+]([O-])c1c[nH]c2ncnc(N3CCC[C@H]3c3nn4ccc(F)c4c(=O)n3-c3ccccc3)c12 [Compound 396, 5-fluoro-2-((S)-1-(5-((S)-methylsulfinyl)-7H-pyrrolo[2,3-d]pyrimidin-4-yl)pyrrolidin-2-yl)-3-phenylpyrrolo[2,1-f][1,2,4]triazin-4(3H)-one]
45.9% | >100% | 6 nM | 99.0% | – | – | CC(=O)c1c[nH]c2ncnc(N3CC[C@H]3c3nn4ccc(Cl)c4c(=O)n3-c3ccccc3)c12 [Compound 185, (S)-2-(1-(5-acetyl-7H-pyrrolo[2,3-d]pyrimidin-4-yl)azetidin-2-yl)-5-chloro-3-phenylpyrrolo[2,1-f][1,2,4]triazin-4(3H)-one]
20.7% | 94.2% | – | 16.5% | – | – | N#Cc1cccc(-n2c([C@@H]3CCCN3c3ncnc4[nH]cc(C#N)c34)nn3ccc(Cl)c3c2=O)c1 [Compound 39]
85.0% | 97.3% | 2 nM | 95.7% | – | 165 nM | CC(=O)c1c[nH]c2ncnc(N3CCC[C@H]3c3nn4ccc(F)c4c(=O)n3-c3ccccc3)c12 [Compound 218]
89.8% | >100% | 1 nM | >100% | 5 nM | 6 nM | COc1ncc(-c2c[nH]c3ncnc(N4CC[C@H]4c4nn5ccc(Cl)c5c(=O)n4-c4ccccc4)c23)cn1 [Compound 100]
6.8% | 77.0% | 381 nM | 85.5% | 36 nM | – | CC(=O)c1c[nH]c2ncnc(N3CC[C@H]3c3nn4ccc(Cl)c4c(=O)n3-c3ccc(F)cc3)c12 [Compound 296, (S)-2-(1-(5-acetyl-7H-pyrrolo[2,3-d]pyrimidin-4-yl)azetidin-2-yl)-5-chloro-3-(4-fluorophenyl)pyrrolo[2,1-f][1,2,4]triazin-4(3H)-one]
62.0% | >100% | 17 nM | >100% | 66 nM | 269 nM | N#C[C@@H]1C[C@@H](c2nn3ccc(Cl)c3c(=O)n2-c2ccccc2)N(c2ncnc3[nH]cnc23)C1 [Compound 358, (3R,5S)-5-(5-chloro-4-oxo-3-phenyl-3,4-dihydropyrrolo[2,1-f][1,2,4]triazin-2-yl)-1-(9H-purin-6-yl)pyrrolidine-3-carbonitrile]
13.5% | 81.1% | 298 nM | 75.5% | 390 nM | – | O=c1c2c(Cl)ccn2nc([C@@H]2CCN2c2ncnc3[nH]ccc23)n1-c1ccccc1 [Compound 142]
6.2% | 49.2% | – | 63.0% | – | – | CC(=O)c1cnc(N)nc1N1CC[C@H]1c1nn2c(C)cc(Cl)c2c(=O)n1-c1ccccc1 [Compound 503]
82.6% | >100% | 3 nM | 92.7% | 51 nM | 100 nM | Nc1ncnc(N2CCC[C@H]2c2nn3ccc(Cl)c3c(=O)n2-c2ccccc2)c1Cl [Compound 27]
29.5% | >100% | 23 nM | 75.1% | 150 nM | – | N#Cc1c(N)ncnc1N1CC[C@H]1c1nn2ccc(Br)c2c(=O)n1-c1ccccc1 [Compound 194]
>100% | >100% | 1 nM | >100% | – | 25 nM | N#Cc1c[nH]c2ncnc(N3C[C@@H](F)C[C@H]3c3nn4ccc(Cl)c4c(=O)n3-c3ccccc3)c12 [Compound 74]
21.6% | 76.1% | 74 nM | 76.1% | 229 nM | – | Cc1nc(N)nc(N2CC[C@H]2c2nn3ccc(Cl)c3c(=O)n2-c2ccccc2)n1 [Compound 205]

Source: patent US20150307520A1, “NOVEL HETEROARYL AND HETEROCYCLE COMPOUNDS, COMPOSITIONS AND METHODS THEREOF” (HUTCHISON MEDIPHARMA LIMITED, priority 2012, published 2015)
